Measured values as given in patent publication US20050221456A1, “Use of indanoyl amide to stimulate secondary metabolism in Taxus sp” (Phyton Biotech, Inc., priority 2004, published 2005).

What was measured:
Taxus chinensis cells [1] = assay: Fed batch addition of 6-EII, taxane production in Taxus chinensis suspension culture (12 days); type: cell-based; details: for Baccatin III / Paclitaxel: harvest after 12 days in production medium; for Total: total taxanes, harvest after 12 days
Text: The medium also contains an indanoyl amide as described in the present application, optionally in combination with one or more jasmonic acid-related substance, and these materials may be added at the beginning of the culture, after the exponential growth phase, or intermittantly throughout the culture period. The other ingredients of the medium may be added all at one time or at different times during the cultivation and may be fed continuously or intermittently. The ingredients may be added either before or after the inclusion of plant cells in the culture broth. Further, nutrients or other ingredients may be additionally added during cultivation, if deemed useful. Optionally, the medium may be changed after a suitable period of cultivation whereby the cells are freshly exposed to a medium containing similar ingredients as described above. Such changes could involve changes to the amounts of sugars such as glucose, fructose, sucrose, maltose, etc., nitrogen sources such as nitrate, ammonium, or amino acids or casamino acids, etc. After a period of cultivation, the culture is harvested and the levels of taxanes are quantified using HPLC and specific taxanes are identified using LC/MS/MS. Taxanes can be recovered from these cultures by appropriate extraction and purification procedures. For Experiments 2-8, Taxus cells were cultivated as callus cultures on solid medium and then further cultivated as suspensions of cell aggregates in liquid medium. Although taxanes can be produced by cultivation on solid medium, the use of liquid medium is preferred. The temperature of cultivation was controlled between 20 and 30 degrees Celsius. This experiment was carried out according to the following parameters. […] Taxus chinensis cells were cultivated as callus and then as suspended cells in growth medium (Medium A shown in Table B) containing 1% maltose and B5 salts according to the methods described above. After seven days of cultivation in this medium, the suspended cells were substantially separated from this medium and placed at about 20% (w/v) fresh cells into a production medium consisting of about 20% (v/v) spent growth medium and 80% (v/v) basal production medium (Medium B shown in Table B, but 1.25-fold concentrated) with an initial pH of 5.8 and containing 20 micromol/l MDCA and 50 micromol/l SLTS (Silver Thiosulfate). […] The gas phase was controlled to 25% oxygen and 4.5% CO2 (balance nitrogen) and the temperature was held at 25±2 degrees Celsius. The cells were cultivated in the dark and were agitated at 100-150 rpm for the duration of the experiment. After 12 days of cultivation in production medium, the culture was harvested for taxanes.

Taxus cells = assay: Batch addition of 6-EII in combination with other medium components, taxane production; type: cell-based; details: batch mode
Method: Taxus cells were cultivated using procedures similar to those used for Example 2. The media were composed of different combinations of 6-EII (or methyl jasmonate-MJS), NAA, SLTS, MDCA and Glutamine. All ingredients were added in a batch mode, i.e., all at once.

Taxus chinensis cells [2] = assay: Effect of 6-EII in combination with other medium ingredients on taxane yield (14 days); type: cell-based
Method: This experiment was carried out according to the following parameters. Taxus chinensis cells were cultivated as callus and then as suspended cells on growth Medium A (Table B), according to the methods described above. After seven days of cultivation in this medium, the suspended cells were substantially separated from this medium and placed at approximately 20% (w/v) fresh cells into a basal production medium (Medium B, Table B) with an initial pH of 5.8. In addition to the components listed in Medium B, the medium additionally comprised 5 millimol/l glutamine. The gas phase was controlled to oxygen at 90-97% of the value in air and 2.5-6% CO2; the temperature was held at 25±2 degrees Celsius. The cells were cultivated in the dark and were agitated at 150-200 rpm for the duration of the experiment. After 14 days of cultivation in production medium, the culture was harvested for taxanes.

Taxus chinensis cells [3] = assay: Effect of silver nitrate and 6-EII on taxane production (14 days); type: cell-based; details: silver as nitrate salt or thiosulfate complex
Text: Taxus chinensis cells were cultivated as callus and then as suspended cells on growth medium (Table B, Medium A) according to the methods described above in Examples 1 and 2. After seven days of cultivation in this medium, the suspended cells were substantially separated from this medium and placed at ca. 20% (w/v) fresh cells into Medium B (Table B) at an initial pH of 5.8. In addition to the components listed in Table B, 20 micromol/l NAA, 20 micromol/l MDCA, 5 mmol/l GLN, MJS or 6-EII and silver as a nitrate salt or thiosulfate complex were added to the medium at various levels. The gas phase was controlled to oxygen at 90-97% of the levels in air and CO2 at 2.5-6%; the temperature was held at 25±2 degrees Celsius. The cells were cultivated in the dark and were agitated at 150-200 rpm for the duration of the experiment. After 14 days of cultivation in production medium, the culture was harvested for taxanes.

tendril coiling = details: quoted from Haider et al.; cited from earlier work
[4] = test system: paclitaxel and taxanes biosynthesis; details: teaching of EP 727492 (Yukimune et al.); cited from earlier work
[5] = test system: touch-sensitive tendrils of Bryonia diocia; details: quoted from Schuler et al. WO 02/55480; cited from earlier work
Taxus chinensis cells [6] = assay: Effect of 6-BII on taxane production in suspension culture (14 days); type: cell-based; details: for Baccatin III / Paclitaxel / Total taxanes: 14 days in production medium with NAA, MDCA, GLN, silver thiosulfate
Method: (§1) This experiment was carried out according to the following parameters. Taxus chinensis cells were cultivated as callus and then as suspended cells on growth medium (Medium A, Table B) according to the methods described above. After seven days of cultivation in this medium, the suspended cells were substantially separated from this medium and placed at approximately 20% (w/v) fresh cells into a basal production medium (Medium B, Table B) with an initial pH of 5.8. In addition to the ingredients listed in Table B, the medium comprised 20 micromol/l NAA, 20 micromol/l MDCA, 5 mmol/l GLN, and 50 micromol/l silver as a thiosulfate complex. The gas phase was controlled to oxygen at 90-97% of the levels in air and 2.5-6% CO2; the temperature was held at 25±2 degrees Celsius. The cells were cultivated in the dark and were agitated at 150-200 rpm for the duration of the experiment. After 14 days of cultivation in production medium, the culture was harvested for taxanes.

Taxus chinensis cells [7] = assay: Effect of 1-OII on accumulation of taxanes by Taxus cell suspension culture (14 days); type: cell-based; details: for Baccatin III / Paclitaxel / Total taxanes: 14 days in production medium with NAA, MDCA, GLN, silver thiosulfate
Method: as §1, with “ca.” for “approximately”, “also contained” for “comprised”, “value” for “levels”

[8] = test system: Eschscholzia californica Cell Cultures; details: compared with the octadecanoids or coronatine; quoted from Haider et al.; cited from earlier work
[9] = cumulative 12-day fed batch dose 20 micromol/l
[10] = cumulative 12-day fed batch dose 50 micromol/l
[11] = cumulative 12-day fed batch dose 75 micromol/l
[12] = cumulative 12-day fed batch dose 100 micromol/l
[13] = cumulative 12-day fed batch dose 30 micromol/l

Compound: 6-ethyl-indanoyl-isoleucine [6-EII]
- activity on taxane production compared with methyl jasmonate (Taxus chinensis cells [1]; 12-day fed batch treatment): comparable activity
- Baccatin III (Taxus chinensis cells [1]; [9]): 159 mg/L
- Paclitaxel (Taxus chinensis cells [1]; [9]): 443 mg/L
- Baccatin III (Taxus chinensis cells [1]; [10]): 358 mg/L
- Paclitaxel (Taxus chinensis cells [1]; [10]): 495 mg/L
- Baccatin III (Taxus chinensis cells [1]; [11]): 605 mg/L
- Paclitaxel (Taxus chinensis cells [1]; [11]): 556 mg/L
- Baccatin III (Taxus chinensis cells [1]; [12]): 616 mg/L
- Paclitaxel (Taxus chinensis cells [1]; [12]): 557 mg/L
- Total (Taxus chinensis cells [1]; [9]): 694 mg/L
- Total (Taxus chinensis cells [1]; [10]): 1301 mg/L
- Total (Taxus chinensis cells [1]; [11]): 1693 mg/L
- Total (Taxus chinensis cells [1]; [12]): 1702 mg/L
- activity in improving taxane production compared with MJS (Taxus cells; all ingredients added at once): comparable activity in improving taxane production
- interaction with auxin-type growth regulator NAA on taxane production (Taxus cells; combined with NAA): interact positively to improve taxane production
- interaction with glutamine on taxane production (Taxus cells; combined with glutamine): interact favorably to improve taxane production
- interaction with silver on overall production of taxanes (Taxus cells; combined with silver (SLTS)): works synergistically with silver to increase overall production of taxanes
- effect on baccatin-III versus paclitaxel production (Taxus cells; with silver): improve baccatin-III production without reducing the amount of paclitaxel produced
- taxane yield, 6-EII by itself (Taxus chinensis cells [2]; 6-EII 5-500 micromol/l, by itself): increase in taxane yield
- taxane yield, combined with NAA (Taxus chinensis cells [2]; 6-EII with 20 micromol/l NAA): yield improved by a significantly higher amount
- taxane yield, combined with NAA and silver (Taxus chinensis cells [2]; 6-EII with 20 micromol/l NAA and 50 micromol/l silver (thiosulfate complex)): yield further increased
- taxane yield, combined with NAA, silver and MDCA (Taxus chinensis cells [2]; 6-EII with 20 micromol/l NAA, 50 micromol/l silver and 20 micromol/l MDCA): yield increased even further
- interaction with silver on taxane production (Taxus chinensis cells [3]): act synergistically

Compound: CCC1CC1(NC(=O)C1=C[C@H](CC)C[C@@H]2C(=O)CC[C@H]12)C(=O)O (some centres unmarked) [Coronatine]
- induction of tendril coiling (tendril coiling): strong inducers of tendril coiling
- induction of paclitaxel and taxanes biosynthesis [4]: shown to induce paclitaxel and taxanes biosynthesis

Compound: CCc1cc2c(c(C(=O)N[C@H](C(=O)OC)[C@@H](C)CC)c1)CCC2=O [6-ethyl-1-oxo-indanoyl isoleucine methyl ester]
- elicitation of the coiling reaction of tendrils [5]: potent elicitor

Compound: 6-Bromoindanoyl isoleucine [6-BII]
- induction of taxanes production (Taxus chinensis cells [6]; T. chinensis cell cultures): effective inducer of taxanes production
- Baccatin III (Taxus chinensis cells [6]; dose 5 micromol/l): 92 mg/L
- Paclitaxel (Taxus chinensis cells [6]; dose 5 micromol/l): 235 mg/L
- Total taxanes (Taxus chinensis cells [6]; dose 5 micromol/l): 423 mg/L
- Baccatin III (Taxus chinensis cells [6]; dose 20 micromol/l): 114 mg/L
- Paclitaxel (Taxus chinensis cells [6]; dose 20 micromol/l): 230 mg/L
- Total taxanes (Taxus chinensis cells [6]; dose 20 micromol/l): 441 mg/L
- Baccatin III (Taxus chinensis cells [6]; dose 50 micromol/l): 174 mg/L
- Paclitaxel (Taxus chinensis cells [6]; dose 50 micromol/l): 254 mg/L
- Total taxanes (Taxus chinensis cells [6]; dose 50 micromol/l): 580 mg/L
- Baccatin III (Taxus chinensis cells [6]; dose 100 micromol/l): 313 mg/L
- Paclitaxel (Taxus chinensis cells [6]; dose 100 micromol/l): 360 mg/L
- Total taxanes (Taxus chinensis cells [6]; dose 100 micromol/l): 962 mg/L
- Baccatin III (Taxus chinensis cells [6]; dose 200 micromol/l): 307 mg/L
- Paclitaxel (Taxus chinensis cells [6]; dose 200 micromol/l): 375 mg/L
- Total taxanes (Taxus chinensis cells [6]; dose 200 micromol/l): 1060 mg/L
- Baccatin III (Taxus chinensis cells [6]; dose 500 micromol/l): 1 mg/L
- Paclitaxel (Taxus chinensis cells [6]; dose 500 micromol/l): 0 mg/L
- Total taxanes (Taxus chinensis cells [6]; dose 500 micromol/l): 105 mg/L

Compound: CC/C=C\CC1C(=O)CCC1CC(=O)OC (centres unmarked) [MJS, methyl jasmonate, reference compound]
- Baccatin III (Taxus chinensis cells [1]; [13]): 273 mg/L
- Paclitaxel (Taxus chinensis cells [1]; [13]): 490 mg/L
- Total (Taxus chinensis cells [1]; [13]): 1410 mg/L
- Baccatin III (Taxus chinensis cells [6]; dose 45 micromol/l): 154 mg/L
- Paclitaxel (Taxus chinensis cells [6]; dose 45 micromol/l): 574 mg/L
- Total taxanes (Taxus chinensis cells [6]; dose 45 micromol/l): 912 mg/L
- Baccatin III (Taxus chinensis cells [7]; dose 45 micromol/l): 226 mg/L
- Paclitaxel (Taxus chinensis cells [7]; dose 45 micromol/l): 432 mg/L
- Total taxanes (Taxus chinensis cells [7]; dose 45 micromol/l): 854 mg/L
- activation of benzo[c]phenanthridine alkaloid accumulation [8]: much more effective

Compound: CC[C@H](C)[C@H](NC(=O)c1cccc2c1CCC2=O)C(=O)OC [1-OII, 1-oxo-indane-carboxy-(L)-isoleucine-methyl ester amide]
- induction of taxanes production (Taxus chinensis cells [7]; Taxus suspension culture): effective inducer of taxanes production
- Baccatin III (Taxus chinensis cells [7]; dose 5 micromol/l): 50 mg/L
- Paclitaxel (Taxus chinensis cells [7]; dose 5 micromol/l): 192 mg/L
- Total taxanes (Taxus chinensis cells [7]; dose 5 micromol/l): 300 mg/L
- Baccatin III (Taxus chinensis cells [7]; dose 20 micromol/l): 72 mg/L
- Paclitaxel (Taxus chinensis cells [7]; dose 20 micromol/l): 248 mg/L
- Total taxanes (Taxus chinensis cells [7]; dose 20 micromol/l): 400 mg/L
- Baccatin III (Taxus chinensis cells [7]; dose 50 micromol/l): 112 mg/L
- Paclitaxel (Taxus chinensis cells [7]; dose 50 micromol/l): 349 mg/L
- Total taxanes (Taxus chinensis cells [7]; dose 50 micromol/l): 580 mg/L
- Baccatin III (Taxus chinensis cells [7]; dose 100 micromol/l): 242 mg/L
- Paclitaxel (Taxus chinensis cells [7]; dose 100 micromol/l): 409 mg/L
- Total taxanes (Taxus chinensis cells [7]; dose 100 micromol/l): 822 mg/L
- Baccatin III (Taxus chinensis cells [7]; dose 200 micromol/l): 375 mg/L
- Paclitaxel (Taxus chinensis cells [7]; dose 200 micromol/l): 407 mg/L
- Total taxanes (Taxus chinensis cells [7]; dose 200 micromol/l): 1055 mg/L
- Baccatin III (Taxus chinensis cells [7]; dose 500 micromol/l): 45 mg/L
- Paclitaxel (Taxus chinensis cells [7]; dose 500 micromol/l): 67 mg/L
- Total taxanes (Taxus chinensis cells [7]; dose 500 micromol/l): 368 mg/L
